Columns and labels:
[1] = test system: BMDM; experiment: Cytotoxicity against mouse BMDM cells assessed as cell viability measured after 72 hrs by MTT assay; assay type: cell-based
[2] = Selectivity index, ratio of IC50 for human HMEC1 cells to IC50 for intracellular amastigote stage of Leishmania infantum; assay type: toxicity, cell-based; conditions: read-out: Ratio IC50
[3] = test system: Leishmania infantum; experiment: Antileishmanial activity against miltefosine resistant promastigote stage of Leishmania infantum LEM5159 isolate measured after 72 hrs by MTT assay; assay type: functional, organism-based
[4] = test system: Leishmania infantum; experiment: Antileishmanial activity against miltefosine and paromomycin resistant promastigote stage of Leishmania infantum LEM2126 isolate measured after 72 hrs by MTT assay; assay type: functional, organism-based
[5] = test system: Leishmania infantum; experiment: Antileishmanial activity against promastigote stage of Leishmania infantum MHOM/TN/80/IPT1 assessed as reduction in parasite viability measured after 72 hrs by MTT assay; assay type: functional, organism-based; conditions: MHOM/TN/80/IPT1, 72 h
[6] = test system: Leishmania tropica; experiment: Antileishmanial activity against intracellular amastigote stage of Leishmania tropica MHOM/IT/2012/ISS3130 assessed as reduction in parasite viability measured after 72 hrs by MTT assay; assay type: functional, organism-based; conditions: MHOM/IT/2012/ISS3130, 72 h
[7] = Selectivity index, ratio of IC50 for human THP1 cells to IC50 for intracellular amastigote stage of Leishmania infantum LEM3049 isolate; assay type: toxicity, cell-based; conditions: read-out: Ratio IC50
[8] = test system: Leishmania infantum; experiment: Antileishmanial activity against intracellular amastigote stage of Leishmania infantum LEM3049 isolate measured after 72 hrs by MTT assay; assay type: functional, organism-based
[9] = test system: Leishmania infantum; experiment: Antileishmanial activity against antimony resistant intracellular amastigote stage of Leishmania infantum LEM3323 isolate measured after 72 hrs by MTT assay; assay type: functional, organism-based
[10] = test system: Leishmania tropica; experiment: Antileishmanial activity against promastigote stage of Leishmania tropica MHOM/IT/2012/ISS3130 assessed as reduction in parasite viability measured after 72 hrs by MTT assay; assay type: functional, organism-based; conditions: MHOM/IT/2012/ISS3130, 72 h
[11] = test system: THP-1; experiment: Cytotoxicity against human THP1 cells assessed as cell viability measured after 72 hrs by MTT assay; assay type: cell-based; conditions: THP-1, 72 h
[12] = test system: Leishmania infantum; experiment: Antileishmanial activity against promastigote stage of Leishmania infantum LEM3049 isolate measured after 72 hrs by MTT assay; assay type: functional, organism-based
[13] = test system: Leishmania infantum; experiment: Antileishmanial activity against miltefosine resistant intracellular amastigote stage of Leishmania infantum LEM5159 isolate measured after 72 hrs by MTT assay; assay type: functional, organism-based
[14] = Selectivity index, ratio of IC50 for human THP1 cells to IC50 for miltefosine and paromomycin resistant intracellular amastigote stage of Leishmania infantum LEM2126 isolate; assay type: toxicity, cell-based; conditions: read-out: Ratio IC50
[15] = Selectivity index, ratio of IC50 for human THP1 cells to IC50 for antimony resistant intracellular amastigote stage of Leishmania infantum LEM3323 isolate; assay type: toxicity, cell-based; conditions: read-out: Ratio IC50
[16] = test system: HMEC-1; experiment: Cytotoxicity against human HMEC1 cells assessed as cell viability measured after 72 hrs by MTT assay; assay type: cell-based; conditions: HMEC-1, 72 h
[17] = test system: Leishmania infantum; experiment: Antileishmanial activity against antimony resistant promastigote stage of Leishmania infantum LEM3323 isolate measured after 72 hrs by MTT assay; assay type: functional, organism-based
[18] = test system: Leishmania braziliensis; experiment: Antileishmanial activity against promastigote stage of Leishmania braziliensis MHOM/IT/2006/ISS2848 assessed as reduction in parasite viability measured after 72 hrs by MTT assay; assay type: functional, organism-based; conditions: MHOM/IT/2006/ISS2848, 72 h
[19] = test system: Leishmania infantum; experiment: Antileishmanial activity against miltefosine and paromomycin resistant intracellular amastigote stage of Leishmania infantum LEM2126 isolate measured after 72 hrs by MTT assay; assay type: functional, organism-based
[20] = Selectivity index, ratio of IC50 for mouse BMDM cells to IC50 for intracellular amastigote stage of Leishmania infantum; assay type: toxicity, cell-based; conditions: read-out: Ratio IC50
[21] = Selectivity index, ratio of IC50 for human CFPAC-1 cells to IC50 for intracellular amastigote stage of Leishmania infantum; assay type: toxicity, cell-based; conditions: read-out: Ratio IC50
[22] = test system: Leishmania infantum; experiment: Antileishmanial activity against intracellular amastigote stage of Leishmania infantum MHOM/TN/80/IPT1 assessed as reduction in parasite viability measured after 72 hrs by MTT assay; assay type: functional, organism-based; conditions: MHOM/TN/80/IPT1, 72 h
[23] = Selectivity index, ratio of IC50 for human THP1 cells to IC50 for miltefosine resistant intracellular amastigote stage of Leishmania infantum LEM5159 isolate; assay type: toxicity, cell-based; conditions: read-out: Ratio IC50
[24] = test system: CFPAC-1; experiment: Cytotoxicity against human CFPAC-1 cells assessed as cell viability measured after 72 hrs by MTT assay; assay type: cell-based; conditions: CFPAC-1, 72 h
[25] = Selectivity index, ratio of IC50 for human THP1 cells to IC50 for intracellular amastigote stage of Leishmania infantum; assay type: toxicity, cell-based; conditions: read-out: Ratio IC50
[26] = test system: Leishmania braziliensis; experiment: Antileishmanial activity against intracellular amastigote stage of Leishmania braziliensis MHOM/IT/2006/ISS2848 assessed as reduction in parasite viability measured after 72 hrs by MTT assay; assay type: functional, organism-based; conditions: MHOM/IT/2006/ISS2848, 72 h

C[C@@H]1[C@H](O)[C@@H](C)/C=C/C=C/C=C/C=C/C=C/C=C/C=C/[C@H](O[C@@H]2O[C@H](C)[C@@H](O)[C@H](N)[C@@H]2O)C[C@@H]2O[C@](O)(C[C@@H](O)C[C@@H](O)[C@H](O)CC[C@@H](O)C[C@@H](O)CC(=O)O[C@H]1C)C[C@H](O)[C@H]2C(=O)O [AMPHOTERICIN B]
IC50 [1]: > 10 µM | selectivity ratio [2]: > 50 | IC50 [3]: 50 nM | IC50 [4]: 100 nM | IC50 [5]: 90 to 150 nM | IC50 [6]: 160 nM | selectivity ratio [7]: 164 | IC50 [8]: 170 nM | IC50 [9]: 180 nM | IC50 ([10]; read-out: IC50): 0.12 µM | IC50 [11]: > 10 µM | IC50 [12]: 60 nM | IC50 [13]: 160 nM | selectivity ratio [14]: 174 | selectivity ratio [15]: 155 | IC50 [16]: > 10 µM | IC50 [17]: 70 nM | IC50 [18]: 0.183 µM | IC50 [19]: 160 nM | selectivity ratio [20]: > 50 | selectivity ratio [21]: > 50 | IC50 [22]: 180 nM | selectivity ratio [23]: 174 | IC50 [24]: > 10 µM | selectivity ratio [25]: > 50 | IC50 [26]: 200 nM

CCCCCCCCCCCCCCCCOP(=O)([O-])OCC[N+](C)(C)C [MILTEFOSINE]
IC50 [5]: 1430 nM | IC50 [6]: 1150 nM | IC50 [10]: 10.5 µM | IC50 [18]: 7.59 µM | IC50 [26]: 890 nM

NC[C@@H]1O[C@H](O[C@H]2[C@@H](O)[C@H](O[C@@H]3[C@@H](O)[C@H](N)C[C@H](N)[C@H]3O[C@H]3O[C@H](CO)[C@@H](O)[C@H](O)[C@H]3N)O[C@@H]2CO)[C@H](N)[C@@H](O)[C@@H]1O [PAROMOMYCIN]
IC50 [5]: 427000 nM
